Assay results from ChEMBL document CHEMBL3734692, “Design and synthesis of 2-oxindole based multi-targeted inhibitors of PDK1/Akt signaling pathway for the treatment of glioblastoma multiforme” (Eur J Med Chem, 2015).
The source made the active and inactive calls. No cut-off for these calls is given here.

Assays:
[1] = target: Glycogen synthase kinase-3 beta (Homo sapiens, UniProt P49841); assay: Inhibition of GSK3beta (unknown origin) in presence of 10 uM ATP incubated for 1 hr by Z'Lyte assay
Chain of Glycogen synthase kinase-3 beta (P49841 whole entry): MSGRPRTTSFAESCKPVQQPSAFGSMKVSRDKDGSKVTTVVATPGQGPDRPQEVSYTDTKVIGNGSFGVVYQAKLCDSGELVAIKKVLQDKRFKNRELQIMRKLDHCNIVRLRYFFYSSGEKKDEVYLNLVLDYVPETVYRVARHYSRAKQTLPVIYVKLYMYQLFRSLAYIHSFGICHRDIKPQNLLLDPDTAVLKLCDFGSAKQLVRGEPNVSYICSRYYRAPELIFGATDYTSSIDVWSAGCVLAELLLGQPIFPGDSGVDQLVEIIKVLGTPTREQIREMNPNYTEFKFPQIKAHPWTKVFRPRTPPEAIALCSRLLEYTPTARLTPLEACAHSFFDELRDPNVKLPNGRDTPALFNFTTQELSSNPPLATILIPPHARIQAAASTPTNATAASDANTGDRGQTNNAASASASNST

[2] = target: Dual specificity mitogen-activated protein kinase kinase 2 (Homo sapiens) (UniProt P36507); assay: Inhibition of MEK2 (unknown origin) at 1 uM by selectscreen kinase profiling assay in presence of ATP
ANGM-CSS [3] = assay: Antiproliferative activity against human ANGM-CSS cells assessed as inhibition of cell growth after 72 to 144 hrs by WST1 assay; type: functional, cell-based
[4] = target: Serine/threonine-protein kinase Chk2 (Homo sapiens) (UniProt O96017); assay: Inhibition of CHEK2 (unknown origin) at 1 uM by selectscreen kinase profiling assay in presence of ATP
Chain of Serine/threonine-protein kinase Chk2 (Homo sapiens) (O96017 whole entry): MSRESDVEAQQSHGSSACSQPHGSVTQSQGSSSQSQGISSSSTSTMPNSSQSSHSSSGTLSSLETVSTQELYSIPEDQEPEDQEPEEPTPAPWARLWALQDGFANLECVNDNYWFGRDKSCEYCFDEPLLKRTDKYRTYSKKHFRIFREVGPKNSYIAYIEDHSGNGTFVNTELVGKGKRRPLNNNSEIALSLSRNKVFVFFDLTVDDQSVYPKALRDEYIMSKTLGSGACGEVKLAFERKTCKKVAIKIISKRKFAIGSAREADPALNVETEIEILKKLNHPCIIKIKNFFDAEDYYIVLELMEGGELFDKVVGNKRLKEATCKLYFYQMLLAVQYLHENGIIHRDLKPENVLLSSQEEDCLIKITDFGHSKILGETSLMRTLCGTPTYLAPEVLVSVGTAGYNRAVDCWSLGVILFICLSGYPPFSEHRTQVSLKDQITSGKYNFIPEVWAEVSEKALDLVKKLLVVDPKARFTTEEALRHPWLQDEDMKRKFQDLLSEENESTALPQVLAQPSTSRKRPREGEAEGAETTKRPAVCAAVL

[5] = Antiproliferative activity against human U118MG cells assessed as inhibition of cell growth after 144 hrs by WST1 assay; type: functional; conditions: U-118-MG
[6] = Induction of apoptosis in human ANGM-CSS cells assessed as early apoptotic cells at 1 uM after 7 days by annexin V-FITC/7-AAD dual staining based cell analysis (reference value: 2.12%); type: functional
ANGM-CSS [7] = assay: Effect on human GSC morphology derived from ANGM-CSS cells assessed as reduction in area occupied by floating spheres at 1 uM after 7 days by microscopic analysis; type: functional, cell-based
[8] = Cell cycle arrest in human GSC derived from ANGM-CSS cells assessed as accumulation at S phase at 1 uM after 7 days by based fluorescent reagent based cell analysis (reference value: 1.9%); type: functional
[9] = target: Inhibitor of nuclear factor kappa-B kinase subunit alpha (Homo sapiens) (UniProt O15111); assay: Inhibition of IKKalpha (unknown origin) at 1 uM by selectscreen kinase profiling assay in presence of ATP
Chain of Inhibitor of nuclear factor kappa-B kinase subunit alpha (Homo sapiens) (O15111 whole entry): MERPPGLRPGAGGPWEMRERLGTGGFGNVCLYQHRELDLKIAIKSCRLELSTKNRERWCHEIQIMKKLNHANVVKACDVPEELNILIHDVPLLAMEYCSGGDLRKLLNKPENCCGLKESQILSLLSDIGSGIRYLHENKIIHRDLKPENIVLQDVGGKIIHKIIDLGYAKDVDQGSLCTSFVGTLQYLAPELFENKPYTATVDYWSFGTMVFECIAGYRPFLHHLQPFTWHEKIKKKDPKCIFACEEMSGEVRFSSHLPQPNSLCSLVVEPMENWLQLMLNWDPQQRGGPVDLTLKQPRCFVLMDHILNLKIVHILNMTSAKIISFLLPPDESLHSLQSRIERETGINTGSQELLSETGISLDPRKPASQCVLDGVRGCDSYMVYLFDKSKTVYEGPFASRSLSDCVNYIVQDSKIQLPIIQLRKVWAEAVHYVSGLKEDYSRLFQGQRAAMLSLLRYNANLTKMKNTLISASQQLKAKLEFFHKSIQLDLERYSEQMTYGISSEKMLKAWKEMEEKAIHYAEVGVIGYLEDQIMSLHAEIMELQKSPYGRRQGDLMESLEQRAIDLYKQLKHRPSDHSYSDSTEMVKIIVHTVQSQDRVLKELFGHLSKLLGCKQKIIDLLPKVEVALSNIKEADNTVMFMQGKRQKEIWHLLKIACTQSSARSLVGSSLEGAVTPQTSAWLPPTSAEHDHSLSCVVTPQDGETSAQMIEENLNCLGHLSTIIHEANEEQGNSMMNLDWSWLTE

[10] = target: Protein kinase C delta type (Homo sapiens) (UniProt Q05655); assay: Inhibition of PKCdelta (unknown origin) at 1 uM by selectscreen kinase profiling assay in presence of ATP
ANGM-CSS [11] = assay: Antiproliferative activity against human GSC derived from ANGM-CSS cells by MTS assay; type: functional, cell-based; conditions: TDE = time-dependent effect
[12] = Induction of apoptosis in human GSC derived from ANGM-CSS cells assessed as dead cells at 1 uM after 7 days by annexin V-FITC/7-AAD dual staining based cell analysis (reference value: 2.33%); type: functional
[13] = target: Tyrosine-protein kinase Lck (Homo sapiens) (UniProt P06239); assay: Inhibition of LCK (unknown origin) at 1 uM by selectscreen kinase profiling assay in presence of ATP
Chain of Tyrosine-protein kinase Lck (Homo sapiens) (P06239 2-509 limits assumed): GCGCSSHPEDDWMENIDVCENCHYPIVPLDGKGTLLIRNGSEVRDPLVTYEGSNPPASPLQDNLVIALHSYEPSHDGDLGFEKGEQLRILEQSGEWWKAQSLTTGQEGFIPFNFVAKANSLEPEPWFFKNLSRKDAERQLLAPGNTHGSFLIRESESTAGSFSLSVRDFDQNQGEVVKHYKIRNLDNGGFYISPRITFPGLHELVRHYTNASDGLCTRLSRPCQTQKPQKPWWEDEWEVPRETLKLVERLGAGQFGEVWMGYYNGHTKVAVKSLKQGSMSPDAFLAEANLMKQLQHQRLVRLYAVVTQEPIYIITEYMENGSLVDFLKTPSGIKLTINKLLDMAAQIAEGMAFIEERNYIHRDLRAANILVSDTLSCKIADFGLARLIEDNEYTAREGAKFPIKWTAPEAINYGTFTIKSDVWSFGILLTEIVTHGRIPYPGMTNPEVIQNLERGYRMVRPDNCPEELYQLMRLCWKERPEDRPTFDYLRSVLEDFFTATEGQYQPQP

[14] = target: Serine/threonine-protein kinase MRCK alpha (Homo sapiens) (UniProt Q5VT25); assay: Inhibition of MRCKalpha (unknown origin) at 1 uM by selectscreen kinase profiling assay in presence of ATP
[15] = target: Interleukin-1 receptor-associated kinase 4 (Homo sapiens) (UniProt Q9NWZ3); assay: Inhibition of IRAK4 (unknown origin) at 1 uM by selectscreen kinase profiling assay in presence of ATP
Chain of Interleukin-1 receptor-associated kinase 4 (Homo sapiens) (Q9NWZ3 whole entry): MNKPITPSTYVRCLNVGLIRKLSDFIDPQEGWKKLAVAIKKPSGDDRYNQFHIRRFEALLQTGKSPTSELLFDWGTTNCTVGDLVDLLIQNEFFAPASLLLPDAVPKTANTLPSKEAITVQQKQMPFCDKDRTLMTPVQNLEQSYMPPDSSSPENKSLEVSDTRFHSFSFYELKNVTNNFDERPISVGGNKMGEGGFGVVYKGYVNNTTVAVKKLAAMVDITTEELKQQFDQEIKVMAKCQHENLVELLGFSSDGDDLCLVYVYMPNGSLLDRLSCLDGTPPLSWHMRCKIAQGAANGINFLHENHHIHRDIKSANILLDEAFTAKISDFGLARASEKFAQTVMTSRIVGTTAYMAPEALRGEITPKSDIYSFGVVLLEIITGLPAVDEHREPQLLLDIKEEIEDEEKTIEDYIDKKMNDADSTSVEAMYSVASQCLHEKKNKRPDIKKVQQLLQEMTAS

[16] = target: Phosphatidylinositol 4-kinase beta (Homo sapiens) (UniProt Q9UBF8); assay: Inhibition of PI4Kbeta (unknown origin) at 1 uM by selectscreen kinase profiling assay in presence of ATP
[17] = target: Tyrosine-protein kinase JAK1 (Homo sapiens) (UniProt P23458); assay: Inhibition of JAK1 (unknown origin) at 1 uM by selectscreen kinase profiling assay in presence of ATP
[18] = target: Ribosomal protein S6 kinase beta-1 (Homo sapiens) (UniProt P23443); assay: Inhibition of RPS6KB1 (unknown origin) at 1 uM by selectscreen kinase profiling assay in presence of ATP
Chain of Ribosomal protein S6 kinase beta-1 (Homo sapiens) (P23443 whole entry, looked up): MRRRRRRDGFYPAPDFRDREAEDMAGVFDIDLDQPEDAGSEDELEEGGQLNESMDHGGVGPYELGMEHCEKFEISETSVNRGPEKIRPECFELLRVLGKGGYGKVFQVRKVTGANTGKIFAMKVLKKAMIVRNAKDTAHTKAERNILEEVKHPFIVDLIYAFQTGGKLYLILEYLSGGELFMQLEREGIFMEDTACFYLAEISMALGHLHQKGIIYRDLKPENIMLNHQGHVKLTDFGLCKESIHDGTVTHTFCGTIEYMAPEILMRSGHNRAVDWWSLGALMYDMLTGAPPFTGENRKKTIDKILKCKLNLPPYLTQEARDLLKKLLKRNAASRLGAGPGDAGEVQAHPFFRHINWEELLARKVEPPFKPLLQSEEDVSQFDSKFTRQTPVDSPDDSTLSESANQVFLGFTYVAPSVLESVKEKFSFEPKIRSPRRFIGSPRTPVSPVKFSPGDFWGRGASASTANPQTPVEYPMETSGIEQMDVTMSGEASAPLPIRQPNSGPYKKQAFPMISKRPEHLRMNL

[19] = Antiproliferative activity against human ANGM-CSS cells assessed as inhibition of cell growth after 96 hrs by WST1 assay; type: functional
[20] = target: Serine/threonine-protein kinase B-raf (Homo sapiens) (UniProt P15056); assay: Inhibition of BRAF (unknown origin) at 1 uM by selectscreen kinase profiling assay in presence of ATP
[21] = target: Serine/threonine-protein kinase PAK 6 (Homo sapiens) (UniProt Q9NQU5); assay: Inhibition of PAK6 (unknown origin) at 1 uM by selectscreen kinase profiling assay in presence of ATP
Chain of Serine/threonine-protein kinase PAK 6 (Homo sapiens) (Q9NQU5 whole entry, looked up): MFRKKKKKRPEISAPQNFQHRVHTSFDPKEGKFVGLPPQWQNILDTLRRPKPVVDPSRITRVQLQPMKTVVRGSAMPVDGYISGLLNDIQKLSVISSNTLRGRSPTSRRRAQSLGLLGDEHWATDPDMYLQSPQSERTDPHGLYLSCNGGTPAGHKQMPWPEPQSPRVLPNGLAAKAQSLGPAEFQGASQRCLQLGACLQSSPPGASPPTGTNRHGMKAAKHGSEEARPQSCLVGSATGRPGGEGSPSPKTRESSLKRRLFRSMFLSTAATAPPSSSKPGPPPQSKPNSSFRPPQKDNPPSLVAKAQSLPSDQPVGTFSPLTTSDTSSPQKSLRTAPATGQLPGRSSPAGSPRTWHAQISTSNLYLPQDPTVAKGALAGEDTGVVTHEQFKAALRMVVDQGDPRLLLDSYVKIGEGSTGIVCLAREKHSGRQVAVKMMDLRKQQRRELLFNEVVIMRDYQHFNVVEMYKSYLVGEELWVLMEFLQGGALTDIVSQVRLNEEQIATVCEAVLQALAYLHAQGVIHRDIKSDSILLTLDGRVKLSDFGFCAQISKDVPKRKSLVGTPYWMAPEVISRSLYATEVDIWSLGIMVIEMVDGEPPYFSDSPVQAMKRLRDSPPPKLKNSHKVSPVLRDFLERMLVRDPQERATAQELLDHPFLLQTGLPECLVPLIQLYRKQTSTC

Homo sapiens = organism: Homo sapiens; assay: Inhibition of PKCbeta I (unknown origin) at 1 uM by selectscreen kinase profiling assay in presence of ATP
ANGM-CSS [22] = assay: Effect on human GSC morphology derived from ANGM-CSS cells assessed as outgrowth of cellular processes at 1 uM after 7 days by microscopic analysis; type: functional, cell-based
[23] = target: Cyclin-dependent kinase 1/cyclin B1 (Homo sapiens) (UniProt P06493+P14635); assay: Inhibition of CDK1/cyclin B (unknown origin) at 1 uM by selectscreen kinase profiling assay in presence of ATP; type: protein-complex assay
[24] = Cell cycle arrest in human ANGM-CSS cells assessed as accumulation at G0/G1 phase at 1 uM after 7 days by based fluorescent reagent based cell analysis (reference value: 60.7%); type: functional
[25] = target: CDK7/Cyclin H/MNAT1 (Homo sapiens) (UniProt P51946+P50613+P51948); assay: Inhibition of CDK7/cyclin H/MNAT1 (unknown origin) at 1 uM by selectscreen kinase profiling assay in presence of ATP; type: protein-complex assay
[26] = target: Mitogen-activated protein kinase 8 (Homo sapiens) (UniProt P45983); assay: Inhibition of JNK1 (unknown origin) at 1 uM by selectscreen kinase profiling assay in presence of ATP
[27] = target: RAC-gamma serine/threonine-protein kinase (Homo sapiens) (UniProt Q9Y243); assay: Inhibition of AKT3 (unknown origin) at 1 uM by selectscreen kinase profiling assay in presence of ATP
ASPC1 = assay: Cytotoxicity against human AsPC1 cells assessed as cell viability 10 uM after 72 hrs by cell counting analysis relative to control; type: functional
[28] = target: Tyrosine-protein kinase ITK/TSK (Homo sapiens) (UniProt Q08881); assay: Inhibition of ITK (unknown origin) at 1 uM by selectscreen kinase profiling assay in presence of ATP
[29] = target: Serine/threonine-protein kinase MARK1 (Homo sapiens) (UniProt Q9P0L2); assay: Inhibition of MARK1 (unknown origin) at 1 uM by selectscreen kinase profiling assay in presence of ATP
Chain of Serine/threonine-protein kinase MARK1 (Homo sapiens) (Q9P0L2 whole entry, looked up): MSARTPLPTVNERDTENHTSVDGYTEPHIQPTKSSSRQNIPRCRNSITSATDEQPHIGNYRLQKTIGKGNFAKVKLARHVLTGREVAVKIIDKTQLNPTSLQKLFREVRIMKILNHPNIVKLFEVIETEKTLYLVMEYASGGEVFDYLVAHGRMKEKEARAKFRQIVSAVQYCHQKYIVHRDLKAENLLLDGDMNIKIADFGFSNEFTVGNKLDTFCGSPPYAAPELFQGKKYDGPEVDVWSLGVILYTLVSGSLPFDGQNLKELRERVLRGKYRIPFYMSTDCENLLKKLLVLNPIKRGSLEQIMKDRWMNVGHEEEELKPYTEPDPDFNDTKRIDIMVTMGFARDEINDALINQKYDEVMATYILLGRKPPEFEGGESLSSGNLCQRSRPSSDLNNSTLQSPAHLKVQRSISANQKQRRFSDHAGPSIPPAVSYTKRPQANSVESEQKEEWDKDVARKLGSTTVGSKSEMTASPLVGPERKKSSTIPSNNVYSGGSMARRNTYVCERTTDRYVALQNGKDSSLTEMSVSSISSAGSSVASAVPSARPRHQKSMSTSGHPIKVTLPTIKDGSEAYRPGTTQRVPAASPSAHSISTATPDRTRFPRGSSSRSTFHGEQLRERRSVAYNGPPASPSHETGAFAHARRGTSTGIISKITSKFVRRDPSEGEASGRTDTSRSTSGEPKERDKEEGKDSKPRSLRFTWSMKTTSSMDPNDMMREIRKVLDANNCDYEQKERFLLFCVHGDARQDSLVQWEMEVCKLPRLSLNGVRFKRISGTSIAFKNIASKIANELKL

COc1cc2c(cc1OC)CN(CC(=O)Nc1ccc3c(c1)/C(=C/c1cnc[nH]1)C(=O)N3)CC2
IC50 [1]: 0.272 µM
inhibition [2]: 37%
growth inhibition (GI) (ANGM-CSS [3]): Dose-dependent effect
inhibition [4]: 24%
GI50 [5]: 16.1 µM
Activity [6]: 6.77%
Activity (ANGM-CSS [7]): Active
Activity [8]: 1%
inhibition [9]: 26%
inhibition [10]: -5%
inhibition (ANGM-CSS [11]): tde
Activity [12]: 1.1%
inhibition [13]: 26%
inhibition [14]: -8%
inhibition [15]: 5%
inhibition [16]: 5%
inhibition [17]: -1%
inhibition [18]: 18%
GI50 [19]: 7.5 µM
inhibition [20]: 28%
inhibition [21]: 2%
inhibition (Homo sapiens): -6%
Activity (ANGM-CSS [22]): Active
inhibition [23]: 18%
Activity [24]: 72.6%
inhibition [25]: -8%
inhibition [26]: 5%
inhibition [27]: 8%
Activity (ASPC1): 68.14%
inhibition [28]: -2%
inhibition [29]: 27%
